Experimental data as given in patent publication US20230277569A1, “Compositions and Methods for Treating, Ameliorating and/or Preventing Cancer and Kits for the Same” (priority 2022, published 2023).
Where two headings read alike, the source gives them in different places.

Assays:
Human Kv1.5 = Human Kv1.5 (Homo sapiens, UniProt P22460); experiment: Ion channel screening, Kv1.5; assay type: cell-based; conditions: n=15, read-out: inhibition of Kv1.5 currents
Source text: (§4) The parameters measured were the maximum inward current evoked on stepping to −20 mV from the 1st and 26th pulse. Human Kv4.3/KChIP2 currents were evoked from a holding potential of −80 mV by a series of four 500 msec pulses to 0 mV using a 1000 msec interval between pulses. The parameter measured was the amplitude of the outward current 50 msec after the onset of the 4th voltage step to 0 mV. Human Cav1.2 currents were evoked by 2 pulses to −10 mV from a holding potential of −100 mV. The parameters measured were the maximum inward currents evoked on stepping to −10 mV from the holding potential of −100 mV for the 1st and 2nd pulse. Human Kv1.5 currents were evoked by a single pulse from a holding potential of −80 mV to a potential of 0 mV for 4 sec before returning to −80 mV. The parameters measured were the maximum amplitude of outward currents evoked at the beginning of the voltage pulse and at the end of the voltage step from −80 mV to 0 mV. Human KCNQ1/minK currents were evoked by a single pulse delivered from a holding potential of −80 mV to +60 mV for 4 sec before returning to −80 mV. The parameter measured was the maximum outward current evoked on stepping to +60 mV from the holding potential of −80 mV. hERG currents were evoked by a three-pulse protocol where voltage was first stepped to +40 mV for two sec from a holding potential of −80 mV to inactivate hERG channels. […]

beagle dogs = experiment: Electrocardiography studies in beagle dogs; assay type: in vivo
Protocol: At each time point, eight-lead ECGs were continuously recorded for at least 30 sec. At least five consecutive ECG waveforms and the associated RR intervals deemed most representative were selected for quantitative analysis at each time point. The ECG interval measurements (PR, QRS, QT, QTc, RR, and heart rate) were made on a single lead. The measured waveforms at each time point were averaged and reported. The QTc interval was calculated using the Fridericia (QT/[RR]^1/3) method. The RR interval was used to derive the heart rate and in QT interval correction. Qualitative assessments included normal sinus rhythm variations, abnormal sinus rhythms, conductance or repolarization abnormalities, bradycardia, and tachycardia. Group comparisons of ECG data (PR, QRS, QT, QTc, and heart rate) were analyzed using ANOVA.

KCNQ1/minK = KCNQ1/minK (Homo sapiens, UniProt P51787); experiment: Ion channel screening, KCNQ1/minK; assay type: cell-based; conditions: n=16, read-out: inhibition of KCNQ1/mink currents
Source text: as §4

CYP3A4 = CYP3A4 (Homo sapiens, UniProt P08684); experiment: CYP inhibition in liver microsomes, CYP3A4; assay type: in vitro ADME; conditions: human liver microsomes 0.1 mg/mL
CYP3A4, sequence (P08684 whole entry): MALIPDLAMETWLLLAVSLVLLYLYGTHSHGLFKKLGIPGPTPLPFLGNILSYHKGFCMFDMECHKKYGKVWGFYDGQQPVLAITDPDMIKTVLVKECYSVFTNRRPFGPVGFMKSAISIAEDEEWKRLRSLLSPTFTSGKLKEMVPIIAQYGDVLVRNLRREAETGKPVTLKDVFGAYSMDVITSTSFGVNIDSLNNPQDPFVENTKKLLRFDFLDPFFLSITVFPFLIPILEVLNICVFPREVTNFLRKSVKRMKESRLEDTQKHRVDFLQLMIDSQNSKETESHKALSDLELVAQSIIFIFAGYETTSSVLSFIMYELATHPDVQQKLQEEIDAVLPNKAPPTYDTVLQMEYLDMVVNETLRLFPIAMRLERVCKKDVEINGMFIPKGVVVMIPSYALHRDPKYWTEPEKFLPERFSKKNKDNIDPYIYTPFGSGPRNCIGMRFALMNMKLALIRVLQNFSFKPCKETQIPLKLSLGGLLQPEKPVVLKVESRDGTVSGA
Protocol: (§5) After addition of prototypical CYP substrates in 250 μL, samples were incubated for 10 min (CYP1A2, CYP2B6, CYP2C9, and CYP3A4) or 20 min (CYP2C8) at 37° C. in 5% CO2. […] Samples were analyzed for metabolite formation by LC-MS/MS. The results were expressed using the peak area ratio of analyte to internal standard, based on the calibration curves.
(§6) where Range=fitted uninhibited value, s=slope factor, x=inhibitor concentration, y=% control activity.

tumor = conditions: cited from earlier work
[1] = test system: colon adenocarcinoma cell lines; conditions: colon adenocarcinoma lines of NCI 60 screen; read-out: IC50 anticancer activity; cited from earlier work
melanoma cell lines = conditions: melanoma lines of NCI 60 screen; read-out: IC50 anticancer activity; cited from earlier work
[2] = test system: Caco2 intestinal cell monolayer; experiment: in vitro; conditions: human, Caco-2, 90 min
Protocol: (§1) Caco2 cells (2×10^4/well) were seeded onto apical chambers of a 24-multiwell insert plate and incubated at 37° C. in 5% CO2. After 21 d, the transepithelial electrical resistance (TEER) in ohms was read for each insert well as a quality control for monolayer integrity (>900 ohms or 300 ohms cm^2). The cell monolayers were incubated with 400 μL transport buffer on the apical (A) and 1.2 mL on the basolateral (B) sides for 30 min. After preincubation, dosing solution was added to the apical (400 μL, A-to-B, donor) or basolateral sides (1.2 mL, B-to-A, donor) or receiving buffer to the apical (400 μL, B-to-A, receiver) or basolateral sides (1.2 mL, A-to-B, receiver) for 90 min at 37° C. in 5% CO2. […] Papp·A>B (nm/s) was calculated with Equation 1.
(§2) Papp Efflux Ratio (ER) was calculated with Equation 2.
(§3) Propranolol (high permeability marker, non-P-gp substate) and digoxin (P-gp substrate) were used as controls.

in vitro = conditions: human
Protocol: as §1, §2, §3

CYP1A2 = CYP1A2 (Homo sapiens, UniProt P05177); experiment: CYP inhibition in liver microsomes, CYP1A2; assay type: in vitro ADME; conditions: human liver microsomes 0.1 mg/mL
CYP1A2, sequence (P05177 whole entry): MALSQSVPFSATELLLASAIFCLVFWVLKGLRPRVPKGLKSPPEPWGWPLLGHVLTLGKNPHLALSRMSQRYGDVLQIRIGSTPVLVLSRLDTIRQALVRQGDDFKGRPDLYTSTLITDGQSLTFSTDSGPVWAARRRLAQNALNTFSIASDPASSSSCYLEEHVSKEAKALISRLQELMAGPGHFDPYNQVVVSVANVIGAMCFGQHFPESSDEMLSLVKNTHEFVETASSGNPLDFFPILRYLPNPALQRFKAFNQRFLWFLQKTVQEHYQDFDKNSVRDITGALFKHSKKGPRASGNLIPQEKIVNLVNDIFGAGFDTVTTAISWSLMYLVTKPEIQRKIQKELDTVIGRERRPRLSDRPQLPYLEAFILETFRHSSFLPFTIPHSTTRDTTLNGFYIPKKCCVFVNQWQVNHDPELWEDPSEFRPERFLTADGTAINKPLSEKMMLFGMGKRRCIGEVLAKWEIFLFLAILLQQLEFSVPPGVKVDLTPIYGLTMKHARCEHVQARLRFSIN
Protocol: as §5, §6

Human Kv4.3/KChIP2 = Human Kv4.3/KChIP2 (Homo sapiens, UniProt Q9UK17); experiment: Ion channel screening, Kv4.3/KChIP2; assay type: cell-based; conditions: n=13, read-out: inhibition of Kv4.3/KChIP2 currents
Human Kv4.3/KChIP2, sequence (Q9UK17 whole entry): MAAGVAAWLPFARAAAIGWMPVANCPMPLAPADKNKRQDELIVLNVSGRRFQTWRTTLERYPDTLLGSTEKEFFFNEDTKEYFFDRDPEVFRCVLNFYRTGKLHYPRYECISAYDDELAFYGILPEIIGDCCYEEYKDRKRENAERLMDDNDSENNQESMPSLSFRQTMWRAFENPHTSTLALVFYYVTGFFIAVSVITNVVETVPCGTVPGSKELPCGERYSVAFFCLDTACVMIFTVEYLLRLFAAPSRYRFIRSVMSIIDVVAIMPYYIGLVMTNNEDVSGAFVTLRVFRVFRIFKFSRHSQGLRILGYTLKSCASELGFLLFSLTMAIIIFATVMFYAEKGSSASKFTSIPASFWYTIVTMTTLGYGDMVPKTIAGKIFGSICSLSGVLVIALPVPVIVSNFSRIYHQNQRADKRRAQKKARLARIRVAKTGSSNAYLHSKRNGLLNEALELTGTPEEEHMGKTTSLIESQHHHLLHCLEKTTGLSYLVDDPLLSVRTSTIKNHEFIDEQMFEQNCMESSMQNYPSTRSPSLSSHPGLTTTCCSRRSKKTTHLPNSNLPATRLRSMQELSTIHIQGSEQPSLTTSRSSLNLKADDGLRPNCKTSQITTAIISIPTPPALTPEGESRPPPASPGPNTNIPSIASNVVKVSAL
Human Kv4.3/KChIP2, sequence (Q9NS61 whole entry partner): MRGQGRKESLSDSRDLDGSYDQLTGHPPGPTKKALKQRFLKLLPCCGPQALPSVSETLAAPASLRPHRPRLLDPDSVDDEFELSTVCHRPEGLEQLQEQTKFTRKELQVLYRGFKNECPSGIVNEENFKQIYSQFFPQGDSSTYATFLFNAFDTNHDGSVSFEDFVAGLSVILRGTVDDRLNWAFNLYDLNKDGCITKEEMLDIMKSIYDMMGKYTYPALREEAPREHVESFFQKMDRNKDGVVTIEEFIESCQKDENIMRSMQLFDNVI
Source text: as §4

CYP2A6 = CYP2A6 (Homo sapiens, UniProt P11509); experiment: CYP inhibition in liver microsomes, CYP2A6; assay type: in vitro ADME; conditions: human liver microsomes 0.1 mg/mL
CYP2A6, sequence (P11509 whole entry): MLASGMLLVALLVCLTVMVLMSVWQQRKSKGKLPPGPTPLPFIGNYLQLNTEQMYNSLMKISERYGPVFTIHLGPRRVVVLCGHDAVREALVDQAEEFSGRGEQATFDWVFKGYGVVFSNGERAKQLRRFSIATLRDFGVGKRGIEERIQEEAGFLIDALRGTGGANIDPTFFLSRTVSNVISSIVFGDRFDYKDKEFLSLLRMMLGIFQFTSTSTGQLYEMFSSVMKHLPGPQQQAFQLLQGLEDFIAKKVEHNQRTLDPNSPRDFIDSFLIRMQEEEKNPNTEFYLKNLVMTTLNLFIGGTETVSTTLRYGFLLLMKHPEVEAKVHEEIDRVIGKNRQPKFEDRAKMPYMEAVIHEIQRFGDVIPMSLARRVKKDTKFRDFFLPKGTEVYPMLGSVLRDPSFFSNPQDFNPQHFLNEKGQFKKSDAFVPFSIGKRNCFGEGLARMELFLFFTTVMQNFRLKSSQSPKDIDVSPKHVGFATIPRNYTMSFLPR
Protocol: as §5, §6

Human Kir2.1 = Human Kir2.1 (Homo sapiens, UniProt P63252); experiment: Ion channel screening, Kir2.1; assay type: cell-based; conditions: n=15, pulse 10, read-out: inhibition of Kir2.1 currents
Human Kir2.1, sequence (P63252 whole entry): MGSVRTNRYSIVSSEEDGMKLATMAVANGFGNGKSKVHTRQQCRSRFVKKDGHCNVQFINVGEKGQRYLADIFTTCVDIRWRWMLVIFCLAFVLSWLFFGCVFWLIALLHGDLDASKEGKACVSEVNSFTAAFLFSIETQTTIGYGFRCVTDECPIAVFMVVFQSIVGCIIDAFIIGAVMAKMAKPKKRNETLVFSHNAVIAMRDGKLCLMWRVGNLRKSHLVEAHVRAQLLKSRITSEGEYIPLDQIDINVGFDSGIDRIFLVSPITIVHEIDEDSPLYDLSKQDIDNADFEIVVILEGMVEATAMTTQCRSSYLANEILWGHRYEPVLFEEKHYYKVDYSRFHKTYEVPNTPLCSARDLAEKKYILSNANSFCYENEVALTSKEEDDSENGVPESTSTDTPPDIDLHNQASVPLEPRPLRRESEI

[3] = Stability and particle size distribution of Gamitrinib Injectable Suspension (GIS); assay type: physicochemical
Protocol: A sequential three-step process was utilized to prepare Good Laboratory Practice (GLP) working solutions of Gamitrinib (5 mg/mL) for preclinical studies. The formulation workflow is as follows: Step 1—Solubilization of Gamitrinib powder in DMSO (2.5%); […] Step 3—Dilution in 5% dextrose (87.5%). […] For Good Manufacturing Practice (GMP) studies, a Gamitrinib Injectable Suspension (GIS) was prepared by microfluidization. Gamitrinib stock solutions prepared as above were passed through a microfluidizer (Dyhydromatics, Acton, Mass.) with rate of flow set at low, medium, and high. At the end of GIS processing, microfluidization was continued at reduced pressure (2000 psi) for 1-2 min. […] Gamitrinib is formulated using a three-step dilution process described in the Materials and Methods section. A sterile, Gamitrinib Injectable Suspension (GIS) is prepared for clinical use using microfluidization with the schematic flowchart shown in FIG. 5B.

[4] = Stability in human plasma; assay type: in vitro ADME
[5] = test system: breast adenocarcinoma cell lines; conditions: breast adenocarcinoma lines of NCI 60 screen; read-out: IC50 anticancer activity; cited from earlier work
tumor cells = conditions: in culture; read-out: IC50 tumor cell killing; cited from earlier work
NCI 60 cell lines = conditions: NCI 60 cell line screen; read-out: IC50 anticancer activity; cited from earlier work
plasma proteins = experiment: Plasma protein binding (rapid equilibrium dialysis); assay type: in vitro ADME, human; conditions: 2 μg/mL, 4-h incubation, 37° C.
Protocol: (§7) Spiked plasma samples were prepared by adding 12 μL of each working solution into 1.2 mL of blank plasma to a final concentration of 2 μg/mL. Plasma protein binding incubations were performed in triplicate by adding 500 μL of PBS into each white chamber and 300 μL of spiked plasma into each red chamber of the RED device. The device was covered with a sealing tape and placed on an orbital shaker at a shaking speed of 100 rpm at 37° C. in 5% CO2. After a 4-h incubation, a 40 μL plasma sample was transferred from each red chamber to the wells of a 96-well plate containing 160 μL of PBS. A 160 μL PBS aliquot from each white chamber was transferred to the wells of the same plate containing 40 μL of blank plasma. After matching the matrix for all samples, 400 μL aliquots of stop solution were added to each well of the 96-well sample plate. […] A 100 μL aliquot of supernatant from each well was transferred to a new 96-well sample plate and further mixed with 100 μL of Milli-Q (ultrapure) water before analysis by liquid chromatography—tandem mass spectrometry (LC-MS/MS).

[6] = as above; assay type: in vitro ADME, human; conditions: human, plasma, 4-h incubation, 37° C.
Protocol: as §7

hERG = target: T1, hERG (Homo sapiens, UniProt Q12809); experiment: Ion channel screening, hERG; assay type: cell-based; conditions: n=16, read-out: inhibition of hERG currents (ion channel screening)
T1 construct: expressed in transfected cells; host or cells: HEK293 (ATCC), polyclonal, stably transfected, G418 selection
T1 sequence (Q12809 whole entry): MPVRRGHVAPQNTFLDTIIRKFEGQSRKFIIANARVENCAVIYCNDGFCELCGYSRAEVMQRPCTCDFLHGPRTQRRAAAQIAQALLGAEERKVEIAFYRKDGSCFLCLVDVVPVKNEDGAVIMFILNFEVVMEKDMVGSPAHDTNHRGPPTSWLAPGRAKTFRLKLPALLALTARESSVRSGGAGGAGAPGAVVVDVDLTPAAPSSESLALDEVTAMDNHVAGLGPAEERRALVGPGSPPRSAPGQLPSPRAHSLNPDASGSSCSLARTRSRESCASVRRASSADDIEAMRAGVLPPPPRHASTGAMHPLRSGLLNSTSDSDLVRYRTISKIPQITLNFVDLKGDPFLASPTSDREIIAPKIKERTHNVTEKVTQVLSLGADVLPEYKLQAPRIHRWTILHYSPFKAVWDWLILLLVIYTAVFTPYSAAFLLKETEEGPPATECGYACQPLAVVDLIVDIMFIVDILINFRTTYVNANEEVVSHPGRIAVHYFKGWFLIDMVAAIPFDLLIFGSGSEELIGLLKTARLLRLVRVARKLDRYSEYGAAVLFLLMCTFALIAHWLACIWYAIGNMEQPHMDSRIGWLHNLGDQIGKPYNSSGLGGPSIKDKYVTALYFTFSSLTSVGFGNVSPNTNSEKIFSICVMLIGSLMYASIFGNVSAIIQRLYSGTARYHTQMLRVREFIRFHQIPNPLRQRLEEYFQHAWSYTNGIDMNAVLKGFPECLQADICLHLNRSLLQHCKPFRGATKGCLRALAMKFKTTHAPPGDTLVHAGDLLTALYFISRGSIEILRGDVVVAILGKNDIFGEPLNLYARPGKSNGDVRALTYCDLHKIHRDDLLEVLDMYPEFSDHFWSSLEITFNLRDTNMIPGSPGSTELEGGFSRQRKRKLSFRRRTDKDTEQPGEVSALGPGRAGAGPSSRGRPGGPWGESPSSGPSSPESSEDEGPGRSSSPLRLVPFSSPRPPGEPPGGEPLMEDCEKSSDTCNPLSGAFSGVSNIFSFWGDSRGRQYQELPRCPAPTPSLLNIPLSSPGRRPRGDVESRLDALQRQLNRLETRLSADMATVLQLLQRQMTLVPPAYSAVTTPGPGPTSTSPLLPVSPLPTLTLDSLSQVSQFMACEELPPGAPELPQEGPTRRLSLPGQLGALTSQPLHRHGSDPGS
Source text: The parameter measured was the maximum outward current evoked on stepping to +60 mV from the holding potential of −80 mV. hERG currents were evoked by a three-pulse protocol where voltage was first stepped to +40 mV for two sec from a holding potential of −80 mV to inactivate hERG channels. The voltage is then stepped back to −50 mV for two sec to evoke a tail current prior to returning to the holding potential for 1 sec. The parameter measured was the amplitude of the 3rd pulse tail current upon stepping back to −50 mV after the step to +40 mV. Human HCN4 currents were evoked by a single pulse from a holding potential of −30 mV to a potential of −110 mV for 4 sec prior to returning to −30 mV. The parameter measured was the maximum inward current evoked upon stepping to −110 mV from the holding potential of −30 mV. Human Kir2.1 currents were evoked from a holding potential of −20 mV by a series of 10 500 msec pulses to −120 mV using a 200 msec interval between pulses. The parameters measured were the amplitudes of the instantaneous inward currents evoked on stepping to −120 mV for the 1st pulse and the maximum inward current at the end of the 10th hyperpolarizing pulse. For all experiments, data were filtered for seal quality, seal drop, and current amplitude.

Human Kv1.5, sequence (P22460 whole entry): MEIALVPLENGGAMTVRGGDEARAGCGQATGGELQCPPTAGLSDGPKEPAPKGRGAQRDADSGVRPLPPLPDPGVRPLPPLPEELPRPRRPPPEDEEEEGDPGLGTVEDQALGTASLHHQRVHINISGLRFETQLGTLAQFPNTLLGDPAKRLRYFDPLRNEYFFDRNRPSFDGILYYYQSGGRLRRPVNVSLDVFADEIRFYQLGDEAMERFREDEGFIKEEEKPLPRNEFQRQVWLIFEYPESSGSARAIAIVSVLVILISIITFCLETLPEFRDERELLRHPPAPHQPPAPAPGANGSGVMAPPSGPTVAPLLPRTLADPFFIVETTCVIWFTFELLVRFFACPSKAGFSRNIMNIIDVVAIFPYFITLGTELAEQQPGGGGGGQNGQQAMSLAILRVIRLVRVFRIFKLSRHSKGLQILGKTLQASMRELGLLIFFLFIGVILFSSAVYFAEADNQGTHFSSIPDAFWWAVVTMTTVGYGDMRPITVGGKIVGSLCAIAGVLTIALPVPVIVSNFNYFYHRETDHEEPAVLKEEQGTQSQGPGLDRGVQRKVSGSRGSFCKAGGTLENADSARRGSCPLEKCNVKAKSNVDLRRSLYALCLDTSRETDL

CO[C@H]1/C=C\C=C(/C)C(=O)NC2=CC(=O)C(NCCCCCC[P+](c3ccccc3)(c3ccccc3)c3ccccc3)=C(C[C@@H](C)C[C@H](OC)[C@H](O)[C@@H](C)/C=C(\C)[C@@H]1OC(N)=O)C2=O [Gamitrinib, 17-Demethoxy-17-((6-(triphenylphosphonio)hexyl)amino)geldanamycin]
inhibition at 10 µM (Human Kv1.5): 6.6 ± 1.3%
ECG changes in PR interval, QRS duration, QT interval, or heart rate (beagle dogs; d 32 of dosing at 1.25, 3.33 or 6.25 mg/kg/dose, d 11 of recovery at 6.25): No Gamitrinib-related ECG changes
rhythm abnormalities or qualitative ECG changes (beagle dogs; dogs): No other rhythm abnormalities or qualitative ECG changes were observed
prolongation of QTc interval (beagle dogs; female dogs 6.25 mg/kg/dose, both sexes 1.25 or 3.33 mg/kg/dose): No Gamitrinib-related prolongation of QTc interval
prolongation of QTc interval (beagle dogs; one out of 5 male dogs at 6.25 mg/kg/dose, d 32 of dosing): 17 ms
prolongation of QTc interval (beagle dogs; one out of 5 male dogs at 6.25 mg/kg/dose, d 32 of dosing, reversed in recovery): 7%
inhibition at 10 µM (KCNQ1/minK): 22.5 ± 1.1%
IC50 (CYP3A4): 120 to 200 nM
therapeutically effective dose in mice (tumor): 10 mg/kg
IC50 [1]: 350 to 29000 nM
IC50 (melanoma cell lines): 360 to 2700 nM
Pexact, B > A [2]: 1.092 ×10⁻⁶ cm/s
Papp B→A at 90 min (in vitro; Caco-2): 1.09 ×10⁻⁶ cm/s
efflux ratio at 90 min (in vitro; Caco-2, Papp Efflux Ratio (ER)): 5.77
Papp A→B at 90 min (in vitro; Caco-2, Papp): 0.19 ×10⁻⁶ cm/s
efflux ratio at 90 min (in vitro; Caco-2, Pexact Efflux Ratio): 5.54
Papp A→B at 90 min (in vitro; Caco-2, Pexact): 0.197 ×10⁻⁶ cm/s
IC50 (CYP1A2): 32900 nM
inhibition at 10 µM (Human Kv4.3/KChIP2): 6.8 ± 2.2%
IC50 (CYP2A6): 24000 nM
inhibition at 10 µM (Human Kir2.1): -7.3 ± 3.4%
stable (time of storage) ([3]; injectable suspension at −20° C.): ≥ 24 weeks
particle size ([3]; injectable suspension produced by microfluidization): < 200 nm
recovery [4]: 82.8 ± 3%
stability in human plasma [4]: 91.4%
IC50 [5]: 160 to 3300 nM
IC50 (tumor cells): 1000 to 4000 nM
IC50 (NCI 60 cell lines): 160 to 29000 nM
bound to plasma proteins (plasma proteins): 99.3±0.07%
fraction unbound at 4 h, 2 μg/mL ([6]; read-out: average free fraction): 0.007 ± 0.0007
fraction unbound at 4 h, 2 μg/mL ([6]; read-out: bound to plasma proteins): < 0.01
inhibition at 10 µM (hERG): 37.9 ± 1.7%
